{"source": "patent US8920854B2", "about": "“Oral care compositions for treating xerostomia” (Georgia Regents Research Institute, priority 2009, dated 2014)", "assay_type_in_all_cases": "in vivo, mouse", "key": {"[1]": {"test_system": "superoxide dismutase 1 (SOD1)", "test": "Antioxidant capacity by immunohistochemistry in NOD mice: SOD1", "conditions": "EGCG-fed NOD mice, 22 weeks, n=12, P<0.0001", "experimental": "Salivary gland and pancreas samples were obtained at 22 weeks of age from NOD mice fed water or EGCG-water (12 animals per group), and from control BALB/c mice. The antioxidant capacity represented by protein levels of peroxiredoxin 6, superoxide dismutase 1 (SOD1), catalase, and glutathione peroxidase was measured by immunohistochemstry."}, "[2]": {"test_system": "peroxiredoxin 6", "test": "Antioxidant capacity by immunohistochemistry in NOD mice: peroxiredoxin 6", "conditions": "22 weeks", "source_text": "(§1) FIGS. 8A-8C, 8D-8F show representative immunostaining of peroxiredoxin 6 (FIGS. 8A-C) and catalase (FIGS. 8D-F) expression in glandular epithelium of 22 week old water-fed (FIGS. 8A, 8D) and EGCG-treated NOD mice (FIGS. 8B, 8E) (magnification 200×). FIGS. 8C and 8F show statistical analysis of peroxiredoxin 6 and Catalase-positive cells. Black arrows point to ductal cells; open arrow to acinar cells (FIG. 8B). Salivary gland and pancreas samples were obtained at 22 weeks of age from NOD mice fed water or EGCG-water (12 animals per group), and from control BALB/c mice. The antioxidant capacity represented by protein levels of peroxiredoxin 6, superoxide dismutase 1 (SOD1), catalase, and glutathione peroxidase was measured by immunohistochemstry."}, "[3]": {"test_system": "Ki-67", "test": "Ki-67 immunostaining of submandibular glands, NOD/Lt mice", "conditions": "0.2% EGCG in drinking water, 8, 16, 22 weeks", "source_text": "(§2) Submandibular salivary gland samples from BALB/c (left), water-fed (middle), and EGCG-fed (right) NOD/Lt mice were stained with ApopTag Plus Peroxidase in situ apoptosis detection method according to the manufacturer's instructions. Arrows point to the nuclear staining of TUNEL-positive cells. […] Submandibular salivary gland samples from BALB/c (left), water-fed (middle), and EGCG-fed (right) NOD/Lt mice were immunostained with the anti-PCNA antibody. Arrows point to the nuclear staining of PCNA-positive cells. […] Submandibular salivary gland samples from BALB/c (left), water-fed (middle), and EGCG-fed (right) NOD/Lt mice were immunostained with the anti-Ki-67 antibody. Arrows point to the nuclear staining of Ki-67-positive cells. […] Solid bars represent the average percentage of TUNEL-positive cells in the submandibular gland of water-fed NOD/Lt mice. Open bars represent the average of TUNEL-positive cells in the submandibular gland of EGCG-fed NOD/Lt mice. […] Solid bars represent the average percentage of PCNA-positive cells in the submandibular gland of water-fed NOD/Lt mice. Open bars represent the average of PCNA-positive cells in the submandibular gland of EGCG-fed NOD/Lt mice. […] Solid bars represent the average of Ki-67-positive cells in the submandibular gland of water-fed NOD/Lt mice. Open bars represent the average of Ki-67-positive cells in the submandibular gland of […] […]"}, "[4]": {"test_system": "PCNA", "test": "PCNA immunostaining of submandibular glands, NOD/Lt mice", "conditions": "0.2% EGCG in drinking water, between 16 and 22 weeks of age", "source_text": "as §2"}, "[5]": {"test_system": "TUNEL-positive cells in submandibular gland", "test": "Apoptotic activity in salivary glands by TUNEL staining, NOD/Lt mice", "conditions": "0.2% EGCG in drinking water, 8, 16, 22 weeks", "source_text": "Submandibular salivary gland samples from BALB/c (left), water-fed (middle), and EGCG-fed (right) NOD/Lt mice were stained with ApopTag Plus Peroxidase in situ apoptosis detection method according to the manufacturer's instructions. Arrows point to the nuclear staining of TUNEL-positive cells. […] Submandibular salivary gland samples from BALB/c (left), water-fed (middle), and EGCG-fed (right) NOD/Lt mice were immunostained with the anti-PCNA antibody. Arrows point to the nuclear staining of PCNA-positive cells. […] Submandibular salivary gland samples from BALB/c (left), water-fed (middle), and EGCG-fed (right) NOD/Lt mice were immunostained with the anti-Ki-67 antibody. Arrows point to the nuclear staining of Ki-67-positive cells. […] Solid bars represent the average percentage of TUNEL-positive cells in the submandibular gland of water-fed NOD/Lt mice. Open bars represent the average of TUNEL-positive cells in the submandibular gland of EGCG-fed NOD/Lt mice. […] Solid bars represent the average percentage of PCNA-positive cells in the submandibular gland of water-fed NOD/Lt mice. […] The apoptotic activity was determined by TUNEL staining of the salivary glands (FIG. 5A) and quantification (FIG. 6A). […] Although it was not determined which cells were undergoing apoptosis, there was no significant apoptotic activity in the majority of secretory cells (Gillespie K, et al. 2008)."}, "[6]": {"test_system": "NOD/Lt mice", "test": "Submandibular gland lymphocytic infiltration in EGCG/water-fed NOD/Lt mice", "conditions": "0.2% EGCG in drinking water", "experimental": "Animals were fed either with EGCG/water or water only. At the age of 8 (n=36), 16 (n=36) and 22 weeks (n=27), submandibular glands were dissected, processed and stained by H&E. Three randomly selected areas of lymphocytic infiltrates were measured in each gland as relative density units generated by BIOQUANT NOVA PRIME 6.75 software, representing area sizes. Error bars are standard error of means (SEM). […] An animal study was conducted to examine whether EGCG fed prior to development of exocrinopathy is protective against salivary gland lymphocyte infiltration and gland abnormalities. Since EGCG is the most abundant green tea polyphenol, and widely used in scientific studies, this compound was selected for this feasibility study using 0.2% EGCG in drinking water (Gillespie K, et al. 2008)."}, "[7]": {"test_system": "catalase", "test": "Antioxidant capacity by immunohistochemistry in NOD mice: catalase", "conditions": "submandibular salivary glands, EGCG-fed NOD/Lt mice, 22 weeks; n=12, p<0.04", "source_text": "as §1"}}, "data": [{"molecule": "O=C(O[C@@H]1Cc2c(O)cc(O)cc2O[C@@H]1c1cc(O)c(O)c(O)c1)c1cc(O)c(O)c(O)c1", "note": "[EGCG, epigallocatechin-3-gallate]", "values": [{"measurement": "SOD1 level in the pancreas", "setting": "[1]", "value": "normalized to BALB/c levels"}, {"measurement": "peroxiredoxin 6 level in the pancreas", "setting": "[2]; pancreas, EGCG-fed NOD mice, n=12, P<0.0001", "value": "normalized to BALB/c levels"}, {"measurement": "expression of peroxiredoxin 6 vs water only fed mice", "setting": "[2]; submandibular salivary glands, EGCG-fed NOD/Lt mice, n=12, p<0.04", "value": "significantly higher"}, {"measurement": "Ki-67 levels in submandibular glands", "setting": "[3]", "value": "affected by EGCG in the same pattern"}, {"measurement": "PCNA-positive cells in submandibular glands", "setting": "[4]", "value": "considerably reduces the rise of PCNA"}, {"measurement": "apoptosis in the glandular epithelium (TUNEL)", "setting": "[5]", "value": "did not affect"}, {"measurement": "apoptosis in the infiltrates (TUNEL)", "setting": "[5]", "value": "initially raising levels, but blocking the considerable increase seen at 22 weeks in water-fed mice"}, {"measurement": "average area of lymphocytic infiltration vs water-fed group", "setting": "[6]; 16 weeks of age, p=0.026", "value": "significantly lower"}, {"measurement": "average area of lymphocytic infiltration vs water-fed group", "setting": "[6]; 22 weeks of age", "value": "no significant difference"}, {"measurement": "expression of catalase vs water only fed mice", "setting": "[7]", "value": "significantly higher"}]}]}
